Data: ChEMBL document CHEMBL3272209, “Anthelmintic 1-cinnamamido-2,4-imidazolidinediones” (1976)
The source made the active and inactive calls. The rule behind the calls is not given here.

What was measured:
Type in all cases: functional
Syphacia obvelata [1] = assay: Anthelmintic activity against Syphacia obvelata infected in mouse assessed as reduction in worm burden at 300 mg/kg, po bid for 5 days; conditions: 120 h
Syphacia obvelata [2] = assay: Anthelmintic activity against Syphacia obvelata infected in mouse assessed as reduction in worm burden at 100 mg/kg, po bid for 5 days; conditions: 120 h
Syphacia obvelata [3] = assay: Anthelmintic activity against Syphacia obvelata infected in mouse assessed as reduction in worm burden at 50 mg/kg, po bid for 5 days; conditions: for inhibition in vivo at 50 mg/kg: 120 h
Syphacia obvelata [4] = assay: Anthelmintic activity against Syphacia obvelata infected in mouse assessed as reduction in worm burden at 25 mg/kg, po bid for 5 days; conditions: for inhibition in vivo at 25 mg/kg: 120 h
Syphacia obvelata [5] = assay: Anthelmintic activity against Syphacia obvelata infected in mouse assessed as reduction in worm burden at 10 mg/kg, po bid for 5 days

For `O=C(/C=C/c1ccc(Cl)c(Cl)c1)NN1CC(=O)NC1=O`, the inhibition in vivo at 300 mg/kg (Syphacia obvelata [1]) was 100%, the inhibition in vivo at 100 mg/kg (Syphacia obvelata [2]) was 100% and the inhibition in vivo at 50 mg/kg (Syphacia obvelata [3]) was 100%. For the same molecule, the inhibition in vivo at 25 mg/kg (Syphacia obvelata [4]) was 51% and the inhibition (Syphacia obvelata [5]) was “inactive”.
`Cc1ccc(/C=C/C(=O)NN2CC(=O)NC2=O)cc1Cl` gave an inhibition in vivo at 300 mg/kg (Syphacia obvelata [1]) of 99%, an inhibition in vivo at 100 mg/kg (Syphacia obvelata [2]) of 97% and an inhibition in vivo at 50 mg/kg (Syphacia obvelata [3]) of 100%. It also gave an inhibition in vivo at 25 mg/kg (Syphacia obvelata [4]) of 87% and an inhibition in vivo at 10 mg/kg (Syphacia obvelata [5]; 120 h) of 34%.
`C1CNCCN1.O=C(O)CCCCC(=O)O` was tested, and the inhibition in vivo at 300 mg/kg (Syphacia obvelata [1]) was 96%, the inhibition in vivo at 100 mg/kg (Syphacia obvelata [2]) was 42% and the inhibition (Syphacia obvelata [3]) was “inactive”.
For `O=C(/C=C/c1ccccc1)NN1CC(=O)NC1=O`, the inhibition in vivo at 300 mg/kg (Syphacia obvelata [1]) was 86%, the inhibition in vivo at 100 mg/kg (Syphacia obvelata [2]) was 75% and the inhibition (Syphacia obvelata [3]) was “inactive”.
`O=C(/C=C/c1ccc(F)cc1)NN1CC(=O)NC1=O` showed an inhibition in vivo at 300 mg/kg (Syphacia obvelata [1]) of 100%, an inhibition in vivo at 100 mg/kg (Syphacia obvelata [2]) of 69% and an inhibition in vivo at 50 mg/kg (Syphacia obvelata [3]) of 67%. For the same molecule, the inhibition (Syphacia obvelata [4]) was “inactive”.
`O=C(/C=C/c1ccc(F)c(Cl)c1)NN1CC(=O)NC1=O` gave an inhibition in vivo at 300 mg/kg (Syphacia obvelata [1]) of 100%, an inhibition in vivo at 100 mg/kg (Syphacia obvelata [2]) of 100% and an inhibition in vivo at 50 mg/kg (Syphacia obvelata [3]) of 87%. The inhibition (Syphacia obvelata [4]) was “inactive”.
With `Cc1cc(/C=C/C(=O)NN2CC(=O)NC2=O)ccc1Br` the inhibition in vivo at 300 mg/kg (Syphacia obvelata [1]) was 100%, the inhibition in vivo at 100 mg/kg (Syphacia obvelata [2]) was 81% and the inhibition (Syphacia obvelata [3]) was “inactive”.
With `CCc1ccc(/C=C/C(=O)NN2CC(=O)NC2=O)cc1Cl` the inhibition in vivo at 300 mg/kg (Syphacia obvelata [1]) was 100%, the inhibition in vivo at 100 mg/kg (Syphacia obvelata [2]) was 87% and the inhibition (Syphacia obvelata [3]) was “inactive”.
With `O=C(/C=C/c1ccc(Cl)c(C(F)(F)F)c1)NN1CC(=O)NC1=O` the inhibition in vivo at 300 mg/kg (Syphacia obvelata [1]) was 70%, the inhibition in vivo at 100 mg/kg (Syphacia obvelata [2]) was 76% and the inhibition (Syphacia obvelata [3]) was “inactive”.
`O=C(/C=C/c1ccc2c(c1)OCO2)NN1CC(=O)NC1=O` was tested, and the inhibition in vivo at 300 mg/kg (Syphacia obvelata [1]) was 100%, the inhibition in vivo at 100 mg/kg (Syphacia obvelata [2]) was 88% and the inhibition (Syphacia obvelata [3]) was “inactive”.
With `O=C(/C=C/c1ccc(Cl)cc1)NN1CC(=O)NC1=O` the inhibition in vivo at 300 mg/kg (Syphacia obvelata [1]) was 100%, the inhibition in vivo at 100 mg/kg (Syphacia obvelata [2]) was 97% and the inhibition in vivo at 50 mg/kg (Syphacia obvelata [3]) was 52%. The inhibition (Syphacia obvelata [4]) was “inactive”.
Work on `N#Cc1ccc(/C=C/C(=O)NN2CC(=O)NC2=O)cc1` yielded an inhibition in vivo at 300 mg/kg (Syphacia obvelata [1]) of 100%, an inhibition in vivo at 100 mg/kg (Syphacia obvelata [2]) of 100% and an inhibition in vivo at 50 mg/kg (Syphacia obvelata [3]) of 100%. The inhibition in vivo at 25 mg/kg (Syphacia obvelata [4]) was 97% and the inhibition (Syphacia obvelata [5]) was “inactive”.
With `O=C(/C=C/c1cccc(F)c1)NN1CC(=O)NC1=O` the inhibition in vivo at 300 mg/kg (Syphacia obvelata [1]) was 100%, the inhibition in vivo at 100 mg/kg (Syphacia obvelata [2]) was 77% and the inhibition (Syphacia obvelata [3]) was “inactive”.
